Read-outs that look alike come from different tables or passages of the source.
Legend:
[1] = system: SARS-CoV-2 in Vero-E6 cells; assay: microbe, parasite or virus in culture; type: cell-based; details: for EC50: read-out: EC50 approx.
SARS-CoV-2 [2] = assay: Intracellular viral antigen (N protein) accumulation by immunofluorescence, A549-ACE2 cells; type: cell-based
SARS-CoV-2 [3] = assay: Intracellular viral antigen (N protein) accumulation by immunofluorescence, Vero-E6 cells; type: cell-based
[4] = Cytotoxicity by MTT colorimetric assay, Vero-E6; type: cell-based; details: African green monkey, uninfected Vero-E6 cells
[5] = system: vesicular stomatitis virus (VSV-GFP); assay: microbe, parasite or virus in culture; type: cell-based; details: A549-ACE2, 16 h
[6] = system: West Nile virus (WNV-GFP); assay: microbe, parasite or virus in culture; type: cell-based; details: Huh-7, 48 h
in vitro [7] = details: African green monkey
HCoV 229E (229E-GFP) = assay: organism not typed; details: Huh-7, 48 h
Experimental: (§1) To study the antiviral effect of selected compounds of the family against a distinct human coronavirus, Huh-7 cell monolayers were infected with a GFP-expressing recombinant HCoV 229E (229E-GFP) at MOI 0.01 in the presence of a wide range of compound concentrations (0.4 to 50 µM). Forty-eight hours later cells were fixed by 10 minutes incubation with a 4 % formaldehyde-PBS solution. After extensive washes with PBS, infection efficiency was evaluated by the detection of GFP accumulation by fluorescence microscopy. Nuclei were stained using DAPI (4',6-diamidino-2-phenylindole) dye. Automated imaging was carried out in a SparkCyto (Tecan) multimode plate reader. The total intensity signal present in vehicle-treated (DMSO) conditions was used as reference (100 %).

in vitro [8] = details: human
in vitro [9] = details: human; remark: listed apart in the source
Experimental: To evaluate the cytotoxicity profile of the selected compounds MTT assays were performed in Vero-E6 and A549-ACE2 cells. Uninfected cells were incubated with a range of compound concentrations (from 50 to 0.78 µM) for forty-eight hours, time at which the MTT substrate [3-(4,5-dimethylthiazol-2-yl)-2,5-diphenyltetrazolium bromide] was added and the formation of formazan precipitates was evaluated two hours later, using a colorimetric readout. Vehicle-treated (DMSO) cells were used as reference (100 %).

in vitro [10] = details: human; remark: listed apart in the source
Experimental: as §1

in vitro [11] = details: human; remark: listed apart in the source
Experimental: Cytotoxicity profile of the selected compounds was evaluated by MTT assays in parallel wells of Huh-7 cells. Uninfected cells were incubated with a range of compound concentrations (from 50 to 0.78 µM) for forty-eight hours, time at which the MTT substrate [3-(4,5-dimethylthiazol-2-yl)-2,5-diphenyltetrazolium bromide] was added and the formation of formazan precipitates was evaluated two hours later, using a colorimetric readout. Vehicle-treated (DMSO) cells were used as reference (100 %).

in vitro [12] = details: human; remark: listed apart in the source
[13] = Severe acute respiratory syndrome coronavirus 2, Vero C1008, approximate, estimated from PCmax and PCmin, Vero-E6, MOI 0.001, 72 h
[14] = Severe acute respiratory syndrome coronavirus 2, Vero C1008, minimum nominal concentration protecting the Vero-E6 monolayer from virus-induced cell death, MOI 0.001, 72 h, read-out: PCmin
[15] = Severe acute respiratory syndrome coronavirus 2, Vero C1008, real concentration, Vero-E6, MOI 0.001, 72 h, read-out: PC min real
[16] = Severe acute respiratory syndrome coronavirus 2, Vero C1008, 72 h
[17] = Severe acute respiratory syndrome coronavirus 2, Vero C1008, 72 h, read-out: PC min real
[18] = Severe acute respiratory syndrome coronavirus 2, Vero C1008, 72 h, read-out: PCmin
[19] = Severe acute respiratory syndrome coronavirus 2, A549-ACE2, MOI 0.005, 48 h, N protein signal, read-out: EC50
[20] = Severe acute respiratory syndrome coronavirus 2, A549-ACE2, MOI 0.005, 48 h, N protein signal, read-out: EC90
[21] = Severe acute respiratory syndrome coronavirus 2, Vero C1008, Vero-E6, MOI 0.01, 24 h, N protein signal, read-out: EC50
[22] = Severe acute respiratory syndrome coronavirus 2, Vero C1008, Vero-E6, MOI 0.01, 24 h, N protein signal, read-out: EC90
[23] = Severe acute respiratory syndrome coronavirus 2, A549-ACE2, 48 h
[24] = Severe acute respiratory syndrome coronavirus 2, Vero C1008, 24 h

CCOC(=O)CC[C@H](NC(=O)OCc1ccccc1)C(=O)NCCC1CCN(Cc2ccccc2)CC1 [NF1313]
EC50 [1, 13]: 19 µM | minimal effective concentration [1, 14]: 25 µM | minimal effective concentration [1, 15]: 25.3 µM

CCCCCCOC(=O)[C@H](CCC(=O)NCCC1CCN(Cc2ccccc2)CC1)NC(=O)c1cc(Br)cs1 [NF1351]
EC50 [1, 16]: 4.3 µM | minimal effective concentration [1, 17]: 5.7 µM | minimal effective concentration [1, 18]: 6.25 µM

CCCCCCOC(=O)[C@H](CCC(=O)NCCC1CCN(Cc2ccccc2)CC1)NC(=O)OC(C)(C)C [NF1346]
EC50 [1, 16]: 9.3 µM | minimal effective concentration [1, 17]: 12.4 µM | minimal effective concentration [1, 18]: 12.5 µM

CCCCCCOC(=O)[C@H](CCC(=O)NCCC1CCN(Cc2ccccc2)CC1)NC(=O)c1ccccc1 [NF0818]
PC min real ([1]; 72 h): 13.0 µM | PCmax real ([1]; 72 h): 51.9 µM | EC50 [1, 16]: 9.7 µM

CCCCCCOC(=O)[C@H](CCC(=O)NCCC1CCN(Cc2ccccc2)CC1)NC(=O)c1c[nH]c2ccccc12 [NF1325]
EC50 [1, 13]: 19.6 µM | minimal effective concentration [1, 14]: 25 µM | minimal effective concentration [1, 15]: 26.1 µM

CCOC(=O)[C@H](CCC(=O)NCCC1CCN(Cc2ccccc2)CC1)NC(=O)c1cc(=O)c2cc(OC)ccc2o1 [NF1336, Ethyl N^5-(2-(1-benzylpiperidin-4-yl)ethyl)-N^2-(6-methoxy-4-oxo-4H-chromene-2-carbonyl)-L-glutaminate]
EC50 [1, 13]: 18.4 µM | minimal effective concentration [1, 14]: 25 µM | minimal effective concentration [1, 15]: 24.5 µM

CCOC(=O)[C@H](CCC(=O)NCCC1CCN(Cc2ccccc2)CC1)NC(=O)c1ccc2cc(OC)ccc2c1 [NF1322]
EC50 [1, 13]: 9.4 µM | minimal effective concentration [1, 14]: 12.5 µM | minimal effective concentration [1, 15]: 12.5 µM

CCCCCCOC(=O)[C@H](CCC(=O)NCCC1CCN(Cc2ccccc2)CC1)NC(=O)c1cc(=O)c2c(OC)cc(OC)cc2o1 [NF1340, n-Hexyl N^5-(2-(1-benzylpiperidin-4-yl)ethyl)-N^2-(5,7-dimethoxy-4-oxo-4H-chromene-2-carbonyl)-L-glutaminate]
EC50 [1, 13]: 41.8 µM | minimal effective concentration [1, 14]: 50 µM | minimal effective concentration [1, 15]: 55.7 µM

CCCCCCOC(=O)[C@H](CCC(=O)NCCC1CCN(Cc2ccccc2)CC1)NC(=O)c1cc(C)on1 [NF1328, n-Hexyl N^5-(2-(1-benzylpiperidin-4-yl)ethyl)-N^2-(5-methylisoxazole-3-carbonyl)-L-glutaminate]
EC50 [1, 13]: 4.9 µM | minimal effective concentration [1, 14]: 6.25 µM | minimal effective concentration [1, 15]: 6.5 µM

CCCCCCOC(=O)[C@H](CCC(=O)NCCC1CCN(Cc2ccccc2)CC1)NC(=O)Cc1cc(C)no1 [NF1334, n-Hexyl N^5-(2-(1-benzylpiperidin-4-yl)ethyl)-N^2-(2-(3-methylisoxazol-5-yl)acetyl)-L-glutaminate]
EC50 [1, 13]: 10.5 µM | minimal effective concentration [1, 14]: 25 µM | minimal effective concentration [1, 15]: 14 µM

CCOC(=O)[C@H](CCC(=O)NCCC1CCN(Cc2ccccc2)CC1)NC(=O)c1cc2ccccc2oc1=O [NF1358, Ethyl N^5-(2-(1-benzylpiperidin-4-yl)ethyl)-N^2-(2-oxo-2H-chromene-3-carbonyl)-L-glutaminate]
EC50 [1, 13]: 19.1 µM | minimal effective concentration [1, 14]: 25 µM | minimal effective concentration [1, 15]: 25.4 µM

CCCCCCOC(=O)[C@H](CCC(=O)NCCC1CCN(Cc2ccccc2)CC1)NC(=O)c1cccs1 [NF1350]
EC50 [1, 16]: 6.9 µM | minimal effective concentration [1, 17]: 9.2 µM | minimal effective concentration [1, 18]: 6.25 µM

CCOC(=O)[C@H](CCC(=O)NCCC1CCN(Cc2ccccc2)CC1)NC(=O)OCc1ccccc1 [NF1365, Ethyl N^2-((benzyloxy)carbonyl)-N^5-(2-(1-benzylpiperidin-4-yl)ethyl)-L-glutaminate]
EC50 [1, 13]: 2.4 µM | minimal effective concentration [1, 14]: 3.12 µM | minimal effective concentration [1, 15]: 3.2 µM | EC50 (SARS-CoV-2 [2]; [19]): 1 to 2 µM | EC90 (SARS-CoV-2 [2]; [20]): 2.5 to 5 µM | EC50 (SARS-CoV-2 [3]; [21]): 1.8 µM | EC90 (SARS-CoV-2 [3]; [22]): 6 µM | CC50 at 48 h [4]: > 50 µM | EC50 [5]: 36 µM | EC90 [5]: 47 µM | EC50 [6]: 27 µM | EC90 [6]: 45 µM | CC50 (in vitro [7]): 50 µM | EC50 (HCoV 229E (229E-GFP)): 1 µM | EC90 (HCoV 229E (229E-GFP)): 8 µM

CCCCCCOC(=O)[C@H](CCC(=O)NCCC1CCN(Cc2ccccc2)CC1)NC(=O)c1cc(=O)c2cc(OC)ccc2o1 [NF1337, n-Hexyl N^5-(2-(1-benzylpiperidin-4-yl)ethyl)-N^2-(6-methoxy-4-oxo-4H-chromene-2-carbonyl)-L-glutaminate]
EC50 [1, 13]: 7.7 µM | minimal effective concentration [1, 14]: 12.5 µM | minimal effective concentration [1, 15]: 10.3 µM

CCCCCCOC(=O)[C@H](CCC(=O)NCCC1CCN(Cc2ccccc2)CC1)NC(=O)c1coc(C)n1 [NF1331, n-Hexyl N^5-(2-(1-benzylpiperidin-4-yl)ethyl)-N^2-(2-methyloxazole-4-carbonyl)-L-glutaminate]
EC50 [1, 13]: 2.4 µM | minimal effective concentration [1, 14]: 3.12 µM | minimal effective concentration [1, 15]: 3.3 µM | EC50 (SARS-CoV-2 [2]; [19]): 1.8 µM | EC90 (SARS-CoV-2 [2]; [20]): 5 µM | EC50 (SARS-CoV-2 [3]; [21]): 1.5 µM | EC90 (SARS-CoV-2 [3]; [22]): 11 µM | CC50 at 48 h [4]: > 50 µM | EC50 [5]: 38 µM | EC90 [5]: > 50 µM | EC50 [6]: > 50 µM | EC90 [6]: > 50 µM | CC50 (in vitro [8]): > 50 µM | CC50 (in vitro [7]): > 50 µM | CC50 (in vitro [9]): > 50 µM | CC50 at 48 h (in vitro [9]): > 50 µM | CC50 at 48 h (in vitro [10]): 43 µM | CC50 (in vitro [11]): > 50 µM | CC50 at 48 h (in vitro [11]): > 50 µM | CC50 at 48 h (in vitro [12]): > 50 µM | EC50 (HCoV 229E (229E-GFP)): 2 µM | EC90 (HCoV 229E (229E-GFP)): 20 µM

CCCCCCOC(=O)[C@H](CCC(=O)NCCC1CCN(Cc2ccccc2)CC1)NC(=O)c1cc2cccnc2s1 [NF1354]
EC50 [1, 16]: 20.9 µM | minimal effective concentration [1, 17]: 27.8 µM | minimal effective concentration [1, 18]: 25 µM

O=C(CC[C@H](NC(=O)OCc1ccccc1)C(=O)OCCBr)NCCC1CCN(Cc2ccccc2)CC1 [NF1363, 2-Bromoethyl N^2-((benzyloxy)carbonyl)-N^5-(2-(1-benzylpiperidin-4-yl)ethyl)-L-glutaminate]
EC50 [1, 13]: 5.4 µM | minimal effective concentration [1, 14]: 6.25 µM | minimal effective concentration [1, 15]: 7.3 µM

CCOC(=O)[C@H](CCC(=O)NCCC1CCN(Cc2ccccc2)CC1)NC(=O)c1ccc2ccccc2n1 [NF1360, Ethyl N^5-(2-(1-benzylpiperidin-4-yl)ethyl)-N^2-(quinoline-2-carbonyl)-L-glutaminate]
EC50 [1, 13]: 24.3 µM | minimal effective concentration [1, 14]: 50 µM | minimal effective concentration [1, 15]: 32.3 µM

CCOC(=O)[C@H](CCC(=O)NCCC1CCN(Cc2ccccc2)CC1)NC(=O)c1ccccc1 [NF1316]
EC50 [1, 13]: 19.4 µM | minimal effective concentration [1, 14]: 25 µM | minimal effective concentration [1, 15]: 25.9 µM

CCCCCCOC(=O)[C@H](CCC(=O)NCCC1CCN(Cc2ccccc2)CC1)NC(=O)c1cc2ccccc2s1 [NF1352]
EC50 [1, 16]: 9.2 µM | minimal effective concentration [1, 17]: 12.3 µM | minimal effective concentration [1, 18]: 12.5 µM

CCCCCCOC(=O)[C@H](CCC(=O)NCCC1CCN(Cc2ccccc2)CC1)NC(=O)OCc1ccccc1 [NF1349]
EC50 [1, 16]: 4.7 µM | minimal effective concentration [1, 17]: 6.3 µM | minimal effective concentration [1, 18]: 6.25 µM | EC50 (SARS-CoV-2 [2]; [23]): 3 µM | EC90 (SARS-CoV-2 [2]; [23]): 5.5 µM | EC50 (SARS-CoV-2 [3]; [24]): 3.1 µM | EC90 (SARS-CoV-2 [3]; [24]): 7 µM | CC50 at 48 h [4]: > 50 µM | EC50 [5]: 36 µM | EC90 [5]: 47 µM | EC50 [6]: 36 µM | EC90 [6]: > 50 µM | CC50 (in vitro [7]): > 50 µM | EC50 (HCoV 229E (229E-GFP)): 2 µM | EC90 (HCoV 229E (229E-GFP)): 10 µM

CCCCCCOC(=O)[C@H](CCC(=O)NCCC1CCN(Cc2ccccc2)CC1)NC(=O)Cc1cc2ccc(Cl)cc2s1 [NF1353]
EC50 [1, 16]: 4.5 µM | minimal effective concentration [1, 17]: 6 µM | minimal effective concentration [1, 18]: 6.25 µM

Reference: patent EP4389121A1, “ANTIVIRAL AMINO ACID DERIVATIVES” (Consejo Superior De Investigaciones Científicas (CSIC), priority 2022, dated 2024)
